Data set [1] has as its system living monkey eye. The conditions noted are these: in vivo.
Data set [2] deals with living monkey eye. The experiment in a line: Pupil size and refraction after topical H-7. The note with it: H-7 150 mM topical, six monkeys. The data set is classed as in vivo, cynomolgus monkeys.
The next data set relates to ciliary muscle strip. Briefly: Pilocarpine-induced contraction of isolated ciliary muscle strip (muscle chamber). The arrangement: species or system rhesus monkeys (Macaca mulatta).
A further data set concerns corneal endothelium. The conditions noted are these: cynomolgus monkey, in vivo.
The test system of data set [3] is normal living monkey eyes. Briefly: Miotic and accommodative response to intramuscular pilocarpine. The format is in vivo, monkeys.
Data set [4] concerns ciliary muscle-disinserted monkey eyes. The experiment in a line: Outflow facility in ciliary muscle-disinserted eyes. The conditions noted are these: H-7 300 μM, nine monkeys. The data set is classed as in vivo, cynomolgus and rhesus monkeys.

“And” between values parts separate entries of the source, which are not always exact repeats. Equal values may be shown once. “Also recorded” adds a separate entry of the source. Bounds are passed on as bounds.

Turning to `C/C1=C\[C@H](C)C[C@H](C)OC(=O)C[C@H](c2ccc(O)cc2)NC(=O)[C@@H](Cc2c(Br)[nH]c3ccccc23)N(C)C(=O)[C@H](C)NC(=O)[C@@H](C)C1` [Jas], in the data set on living monkey eye [1], the “effect of Jas on Lat B-induced facility increase” value is “did not affect the 200 nM Lat B-induced facility increase; also recorded: did not affect the 60 nM Lat B-induced facility increase”; the “effect on outflow facility” value is listed as “no significant effect on outflow facility”; the “outflow facility increase, adjusted for baseline and resistance washout in contralateral eyes” value is 157±57%.

As for `CN[C@@H]1C[C@H]2O[C@@](C)([C@@H]1OC)n1c3ccccc3c3c4c(c5c6ccccc6n2c5c31)C(=O)NC4` [staurosporine], the “Facility PRx, Rx/Cont” value in the data set with living monkey eye [1] is 1.99 ± 0.43 and 1.03 ± 0.17 and 1.57 ± 0.25.

For the compound `CC1CNCCN1S(=O)(=O)c1cccc2cnccc12` (stereo not shown) [H-7, 1-(5-isoquinolinyl-sulfonyl)-2-methylpiperazine], in the data set on living monkey eye [1], the “drug-free baseline facility vs first baseline” value is on record as “significant increase in facility”. Further, in the data set on living monkey eye [2], the “effect on pupil size” value is “did have an effect on pupil size” and the effect on refraction result was “no statistically significant difference in refraction”. Further, in the data set with ciliary muscle strip, the “selectivity longitudinal vs circular vector” value is on record as “no selectivity for one vector over the other”. The “time to inhibition of the initial pilocarpine contraction” value with ciliary muscle strip (10 μM pilocarpine + 300 μM H-7) is ≤ 10 min. For the same compound, the “contraction to 10 μM pilocarpine after washout” value with ciliary muscle strip (90 minute washout after 300 μM H-7) is on record as “no contraction in either vector”. In addition, the “contraction to 10 μM pilocarpine after washout” value with ciliary muscle strip (2.5 hours after removal of H-7) was “sluggish contraction in both vectors”. Besides, in the data set with corneal endothelium, the “change in corneal endothelial cell counts” value was “did not reveal a statistical change in cell counts” and the “corneal endothelial cell morphology” value is given as “no morphological changes in cells were observed”. Moreover, the “effect on pilocarpine-induced miosis” value in data set [3] (H-7 intracameral (~300 μM) or intravitreal (300 μM-1.2 mM)) is “inhibits ipsilateral pilocarpine-induced miosis”. Moreover, the “effect on pupil after phenylephrine” value in data set [3] (H-7 intracameral or intravitreal) was “dilates the ipsilateral pupil even beyond the effect of phenylephrine”. Further, the “facility increase, ciliary muscle disinserted vs non-disinserted eyes” value in data set [4] is listed as “essentially identical proportional increase in outflow facility”.

(Values after patent US6586425B2, “Cytoskeletal active agents for glaucoma therapy” (Wisconsin Alumni Research Foundation, priority 1996, dated 2003).)
